17 compounds from US9611277B2 (Janssen Pharmaceutica NV, priority 2013, dated 2017) can be followed below.

The structures appear in SMILES notation.

One assay concerns the target rat orexin 1 receptor (Rattus norvegicus, UniProt P56718). The assay is described as follows: Rat orexin 1 receptor radioligand binding. The conditions noted are these: rat orexin 1 receptor; averages of 2-20 runs; read-out: rOX1 Ki. On the procedure:
(§1) Data are analyzed using pc-Sandy macro and graphed on Graphpad Prism 5. For analysis, each concentration point is averaged from triplicate values and the averaged values are plotted on Graphpad Prism. The IC50 was determined by applying the following equation (GraphPad Prism 5.0, SanDiego) for one site competition where X=log (concentration) and Y=specific binding. Top denotes the total [^3H]-(1-(5-(2-fluoro-phenyl)-2-methyl-thiazol-4-yl)-1-((S)-2-(5-phenyl-(1,3,4)oxadiazol-2-ylmethyl)-pyrrolidin-1-yl)-methanone) binding, bottom denotes the nonspecific [^3H]-(1-(5-(2-fluoro-phenyl)-2-methyl-thiazol-4-yl)-1-((S)-2-(5-phenyl-(1,3,4)oxadiazol-2-ylmethyl)-pyrrolidin-1-yl)-methanone) binding. Graphpad Prism calculates Ki value from IC50 and the pre-determined Kd values for [^3H]-(1-(5-(2-fluoro-phenyl)-2-methyl-thiazol-4-yl)-1-((S)-2-(5-phenyl-(1,3,4)oxadiazol-2-ylmethyl)-pyrrolidin-1-yl)-methanone) and [3H]-EMPA. The Ki for each compound is then uploaded into 3DX. Each run comprises individual compounds in triplicate. The data in Table 1 and Table 2 represent averages from between 2-20 runs
(§2) Rat and Human Orexin 1 Receptor Radioligand Binding Studies
(§3) After centrifugation (2K×G, 5 min at 4° C.), the supernatant was aspirated and the pellets frozen and stored at −80° C. […] Each cell pellet from a 15 cm plate was resuspended in 10 mL, stored on ice, and homogenized for 45 sec prior to addition to the reactions. […] The final concentration of DMSO in the reactions is equal to or less than 0.1%. Total and nonspecific binding was determined in the absence and presence of 10 μM almorexant. The total volume of each reaction is 200 μL (20 μL of diluted compounds, 80 μL of [^3H]-(1-(5-(2-fluoro-phenyl)-2-methyl-thiazol-4-yl)-1-((S)-2-(5-phenyl-(1,3,4)oxadiazol-2-ylmethyl)-pyrrolidin-1-yl)-methanone) diluted in PBS and 100 μL of the cell suspension). […] The plates were washed 3 times by aspirating 30 ml PBS through the plates. Plates were dried in 55° C. oven for 60 min, scintillation fluid was added, and the radioactivity was counted on a Topcount (Packard).

In a further assay the target is human orexin 1 receptor (Homo sapiens, UniProt O43613). The assay is described as follows: Human orexin 1 receptor radioligand binding. The conditions noted are these: human orexin 1 receptor; averages of 2-20 runs; read-out: hOX1 Ki. On the procedure: as §1, §2, §3
The next assay concerns the target human orexin 2 receptor (Homo sapiens (Human), UniProt O43614). The assay is described as follows: Human orexin 2 receptor radioligand binding. Particulars: human orexin 2 receptor; averages of 2-20 runs; read-out: hOX2 Ki. On the procedure: as §1
Human Orexin 2 Receptor Radioligand Binding Studies
as §3, with “HEK293 stably expressing human orexin 2 receptor (Genebank accession number NM_001526) were grown to confluency in DMEM (Hyclone, cat # SH30022), 10% FBS, 1× Pen/Strep, 1× NaPyruvate, 10 mM HEPES, 600 ug/ml G418 media on 150 cm^2 tissue culture plates, washed with 5 mM EDTA in PBS (HyClone Dulbecco's Phosphate Buffered Saline 1× with Calcium and Magnesium, Cat # SH30264.01, hereafter referred to simply as PBS) and scraped into 50 ml tubes. After” for “After”, “sec just” for “sec”, “[^3H]-EMPA” for “[^3H]-(1-(5-(2-fluoro-phenyl)-2-methyl-thiazol-4-yl)-1-((S)-2-(5-phenyl-(1,3,4)oxadiazol-2-ylmethyl)-pyrrolidin-1-yl)-methanone)”

Sequence of human orexin 2 receptor (O43614 whole entry): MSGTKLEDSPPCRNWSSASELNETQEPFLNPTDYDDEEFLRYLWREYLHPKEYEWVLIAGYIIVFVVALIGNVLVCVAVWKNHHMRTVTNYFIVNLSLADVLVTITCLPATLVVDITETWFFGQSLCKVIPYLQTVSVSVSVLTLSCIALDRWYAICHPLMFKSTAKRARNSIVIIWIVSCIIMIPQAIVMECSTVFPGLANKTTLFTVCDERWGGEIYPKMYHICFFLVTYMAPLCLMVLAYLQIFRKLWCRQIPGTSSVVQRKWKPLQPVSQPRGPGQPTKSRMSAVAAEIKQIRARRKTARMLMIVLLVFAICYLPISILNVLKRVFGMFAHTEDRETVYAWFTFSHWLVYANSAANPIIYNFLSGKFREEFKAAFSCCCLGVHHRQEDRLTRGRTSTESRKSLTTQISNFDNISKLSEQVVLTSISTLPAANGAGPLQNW

In general, Ki refers to a dissociation constant, usually derived from enzyme kinetics or from competition with a known ligand. In the case of `Cc1nc(C(=O)N2CC3CC(Oc4ccc(C(F)(F)F)cn4)C2C3)c(-c2ccc(F)cc2)s1` (racemic) [Example 5, (R/S)-(5-(4-fluorophenyl)-2-methylthiazol-4-yl)(6-((5-(trifluoromethyl)pyridin-2-yl)oxy)-2-azabicyclo[2.2.1]heptan-2-yl)methanone], the Ki turned out to be 0.025 µM on rat orexin 1 receptor, 0.018 µM at human orexin 1 receptor and 0.779 µM on human orexin 2 receptor.

Turning to `Cc1cccc(C(=O)N2CC3CCC2C(Nc2cnc(C(F)(F)F)cn2)C3)c1-n1nccn1` (racemic) [Example 256, (R/S)-(3-methyl-2-(2H-1,2,3-triazol-2-yl)phenyl)(6-((5-(trifluoromethyl)pyrazin-2-yl)amino)-2-azabicyclo[2.2.2]octan-2-yl)methanone], the inhibitory constant (Ki) came out at 0.02 µM on rat orexin 1 receptor, 0.01 µM on human orexin 1 receptor and 0.348 µM on human orexin 2 receptor.

Take `O=C(c1cccc(F)c1-c1ncccn1)N1CC2CCC1C(Nc1cnc(C(F)(F)F)cn1)C2` (racemic) [Example 257, (R/S)-(3-fluoro-2-(pyrimidin-2-yl)phenyl)(6-((5-(trifluoromethyl)pyrazin-2-yl)amino)-2-azabicyclo[2.2.2]octan-2-yl)methanone]: the inhibition constant Ki is 0.021 µM on rat orexin 1 receptor, 0.024 µM at human orexin 1 receptor and 0.741 µM on human orexin 2 receptor.

As to `O=C(c1ccc(F)cc1-c1ncccn1)N1CC2CCC1C(Nc1cnc(C(F)(F)F)cn1)C2` (racemic) [Example 258, (R/S)-(4-fluoro-2-(pyrimidin-2-yl)phenyl)(6-((5-(trifluoromethyl)pyrazin-2-yl)amino)-2-azabicyclo[2.2.2]octan-2-yl)methanone], the Ki at rat orexin 1 receptor was found to be 0.026 µM; on human orexin 1 receptor, 0.017 µM; at human orexin 2 receptor it was 2.6 µM.

Turning to `O=C(c1ccc(F)cc1-n1nccn1)N1C[C@H]2C[C@@H](Oc3ccc(C(F)(F)F)cn3)[C@@H]1C2` [Example 44, (4-fluoro-2-(2H-1,2,3-triazol-2-yl)phenyl)((1S,4R,6R)-6-((5-(trifluoromethyl)pyridin-2-yl)oxy)-2-azabicyclo[2.2.1]heptan-2-yl)methanone], the figures for the inhibitory constant (Ki) at human orexin 1 receptor and at human orexin 2 receptor were 0.039 µM and 2.33 µM, respectively.

Turning to `O=C(c1cccc(F)c1-c1ncccn1)N1C[C@H]2C[C@@H](Oc3ccc(Br)cn3)[C@@H]1C2` [Example 48, ((1S,4R,6R)-6-((5-bromopyridin-2-yl)oxy)-2-azabicyclo[2.2.1]heptan-2-yl)(3-fluoro-2-(pyrimidin-2-yl)phenyl)methanone], the figures for the Ki at rat orexin 1 receptor, at human orexin 1 receptor and on human orexin 2 receptor were 0.004 µM, 0.005 µM and 0.903 µM, respectively.

Take `O=C(c1ccccc1-n1nccn1)N1C[C@H]2C[C@@H](Oc3ccc(Br)cn3)[C@@H]1C2` [Example 49, (2-(2H-1,2,3-triazol-2-yl)phenyl)((1S,4R,6R)-6-((5-bromopyridin-2-yl)oxy)-2-azabicyclo[2.2.1]heptan-2-yl)methanone]: the values for the inhibition constant (Ki) on human orexin 1 receptor and at human orexin 2 receptor were 0.005 µM and 0.443 µM, respectively.

With `Cc1ccc(-n2nccn2)c(C(=O)N2C[C@H]3C[C@@H](Oc4ccc(Br)cn4)[C@@H]2C3)n1` [Example 50, ((1S,4R,6R)-6-((5-bromopyridin-2-yl)oxy)-2-azabicyclo[2.2.1]heptan-2-yl)(6-methyl-3-(2H-1,2,3-triazol-2-yl)pyridin-2-yl)methanone], the Ki amounted to 0.01 µM on human orexin 1 receptor and 0.578 µM at human orexin 2 receptor.

Take `O=C(c1cc(F)ccc1-c1ncccn1)N1C[C@H]2C[C@@H](Nc3ccc(C(F)(F)F)cn3)[C@@H]1C2` [Example 58, (5-fluoro-2-(pyrimidin-2-yl)phenyl)((1S,4S,6R)-6-((5-(trifluoromethyl)pyridin-2-yl)amino)-2-azabicyclo[2.2.1]heptan-2-yl)methanone]: the Ki at rat orexin 1 receptor came to 0.005 µM; on human orexin 1 receptor, 0.003 µM; on human orexin 2 receptor, 0.193 µM.

For `O=C(c1ccccc1-n1nccn1)N1C[C@H]2C[C@@H](Nc3cnc(C(F)(F)F)cn3)[C@@H]1C2` [Example 59, (2-(2H-1,2,3-triazol-2-yl)phenyl)((1S,4S,6R)-6-((5-(trifluoromethyl)pyrazin-2-yl)amino)-2-azabicyclo[2.2.1]heptan-2-yl)methanone], the results for the Ki on human orexin 1 receptor and at human orexin 2 receptor were 0.007 µM and 0.192 µM, respectively.

Take `O=C(c1ccccc1-n1nccn1)N1C[C@H]2C[C@@H](Nc3ncc(C(F)(F)F)cn3)[C@@H]1C2` [Example 60, (2-(2H-1,2,3-triazol-2-yl)phenyl)((1S,4S,6R)-6-((5-(trifluoromethyl)pyrimidin-2-yl)amino)-2-azabicyclo[2.2.1]heptan-2-yl)methanone]: the results for the inhibition constant (Ki) on rat orexin 1 receptor, on human orexin 1 receptor and at human orexin 2 receptor were 0.02 µM, 0.012 µM and 0.617 µM, respectively.

As for `Cc1ccc(-n2nccn2)c(C(=O)N2C[C@H]3C[C@@H](Nc4cnc(C(F)(F)F)cn4)[C@@H]2C3)n1` [Example 61, (6-methyl-3-(2H-1,2,3-triazol-2-yl)pyridin-2-yl)((1S,4S,6R)-6-((5-(trifluoromethyl)pyrazin-2-yl)amino)-2-azabicyclo[2.2.1]heptan-2-yl)methanone], the figures for the Ki at rat orexin 1 receptor, at human orexin 1 receptor and on human orexin 2 receptor were 0.015 µM, 0.019 µM and 0.248 µM, respectively.

Take `Cc1ccc(-n2nccn2)c(C(=O)N2C[C@H]3C[C@@H](Nc4ncc(C(F)(F)F)cn4)[C@@H]2C3)n1` [Example 62, (6-methyl-3-(2H-1,2,3-triazol-2-yl)pyridin-2-yl)((1S,4S,6R)-6-((5-(trifluoromethyl)pyrimidin-2-yl)amino)-2-azabicyclo[2.2.1]heptan-2-yl)methanone]: the inhibition constant Ki turned out to be 0.028 µM at rat orexin 1 receptor, 0.019 µM on human orexin 1 receptor and 0.569 µM on human orexin 2 receptor.

Consider `O=C(c1cccc(F)c1-c1ncccn1)N1C[C@H]2C[C@@H](Nc3ccc(C(F)(F)F)cn3)[C@@H]1C2` [Example 66, (3-fluoro-2-(pyrimidin-2-yl)phenyl)((1S,4S,6R)-6-((5-(trifluoromethyl)pyridin-2-yl)amino)-2-azabicyclo[2.2.1]heptan-2-yl)methanone], for which the inhibition constant Ki was determined as 0.002 µM at rat orexin 1 receptor, 0.005 µM on human orexin 1 receptor and 0.181 µM on human orexin 2 receptor.

Consider `O=C(c1cccc(F)c1-c1ncccn1)N1C[C@H]2C[C@@H](Nc3cnc(C(F)(F)F)cn3)[C@@H]1C2` [Example 67, (3-fluoro-2-(pyrimidin-2-yl)phenyl)((1S,4S,6R)-6-((5-(trifluoromethyl)pyrazin-2-yl)amino)-2-azabicyclo[2.2.1]heptan-2-yl)methanone], for which the Ki on rat orexin 1 receptor is 0.007 µM; on human orexin 1 receptor, 0.007 µM; at human orexin 2 receptor, 0.264 µM.

Take `O=C(c1cccc(F)c1-c1ncccn1)N1C[C@H]2C[C@@H](Nc3ncc(C(F)(F)F)cn3)[C@@H]1C2` [Example 68, (3-fluoro-2-(pyrimidin-2-yl)phenyl)((1S,4S,6R)-6-((5-(trifluoromethyl)pyrimidin-2-yl)amino)-2-azabicyclo[2.2.1]heptan-2-yl)methanone]: the figures for the Ki at rat orexin 1 receptor, at human orexin 1 receptor and on human orexin 2 receptor were 0.007 µM, 0.008 µM and 0.612 µM, respectively.

On to `O=C(c1ccccc1-c1ncc(F)cn1)N1C[C@@H]2CC[C@H]1[C@H](Oc1ccc(C(F)(F)F)cn1)C2` [Example 262, (2-(5-fluoropyrimidin-2-yl)phenyl)((1S,4R,6R)-6-((5-(trifluoromethyl)pyridin-2-yl)oxy)-2-azabicyclo[2.2.2]octan-2-yl)methanone], for which the Ki at rat orexin 1 receptor and on human orexin 1 receptor was 0.01 µM each time.
